The record followed here is article PMC8642396, “Crystal structure of human METTL6, the m^3C methyltransferase” (Communications Biology, 2021).

Substitutions are numbered along the chain they refer to.

What all share (assay type): binding
Experiment [1] deals with T1, hMETTL6 (Homo sapiens, UniProt Q8TCB7).
T1 construct: gene METTL6
T1 sequence (Q8TCB7 1-284): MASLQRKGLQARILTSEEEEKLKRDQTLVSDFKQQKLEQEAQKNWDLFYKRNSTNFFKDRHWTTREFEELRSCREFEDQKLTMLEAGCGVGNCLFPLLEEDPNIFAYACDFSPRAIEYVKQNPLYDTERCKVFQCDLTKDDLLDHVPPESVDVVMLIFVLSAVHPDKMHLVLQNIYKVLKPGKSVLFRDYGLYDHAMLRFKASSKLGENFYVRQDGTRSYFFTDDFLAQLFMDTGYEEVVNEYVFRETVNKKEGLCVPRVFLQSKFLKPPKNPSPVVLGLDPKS
The experiment is described as follows: X-ray crystal structure, […] Å. Particulars: protein mixed with 2 mM SAH; active site; ammonium sulfate, pH 5.6.

For experiment [2], the target named is T2, hMETTL6 (Homo sapiens, UniProt Q8TCB7, Y49F).
T2 construct: gene METTL6
T2 sequence (Q8TCB7 1-284 Y49F): T1 sequence (Q8TCB7 1-284) with Y49F
The experiment is described as follows: isothermal titration calorimetry.

The target in experiment [3] is T3, hMETTL6 (Homo sapiens, UniProt Q8TCB7, E85Q).
T3 construct: gene METTL6
T3 sequence (Q8TCB7 1-284 E85Q): T1 sequence (Q8TCB7 1-284) with E85Q
Kind of experiment: isothermal titration calorimetry. On the technique in general: ITC needs no label: the signal is the heat of the interaction.

For experiment [4], the target named is T4, hMETTL6 (Homo sapiens, UniProt Q8TCB7, C93S).
T4 construct: gene METTL6
T4 sequence (Q8TCB7 1-284 C93S): T1 sequence (Q8TCB7 1-284) with C93S
The experiment is described as follows: isothermal titration calorimetry.

The target in experiment [5] is T5, hMETTL6 (Homo sapiens, UniProt Q8TCB7, H61N).
T5 construct: gene METTL6
T5 sequence (Q8TCB7 1-284 H61N): T1 sequence (Q8TCB7 1-284) with H61N
Kind of experiment: isothermal titration calorimetry.

In experiment [6] the target is T6, hMETTL6 (Homo sapiens, UniProt Q8TCB7, F111L).
T6 construct: gene METTL6
T6 sequence (Q8TCB7 1-284 F111L): T1 sequence (Q8TCB7 1-284) with F111L
Kind of experiment: isothermal titration calorimetry.

The target of experiment [7] is T1, hMETTL6. The experiment is described as follows: isothermal titration calorimetry.
Experiment [8] addresses T7, hMETTL6 (Homo sapiens, UniProt Q8TCB7, D110A).
T7 construct: gene METTL6
T7 sequence (Q8TCB7 1-284 D110A): T1 sequence (Q8TCB7 1-284) with D110A
Kind of experiment: isothermal titration calorimetry. Particulars: pH 8.0, 150 mM NaCl, 1 mM DTT, 25 °C; mutant partly aggregated, structural integrity disrupted.

In the case of `Nc1ncnc2c1ncn2[C@@H]1O[C@H](CSCC[C@H](N)C(=O)O)[C@@H](O)[C@H]1O` [SAH], the “X-ray crystal structure, 1.9 Å” value on hMETTL6 [1] is reported as “we solved the structure of hMETTL6 in complex with SAH at a high resolution”.
Broadly, the Kd is the concentration at which binding is half-saturated. Lower therefore signals higher affinity. Consider `C[S+](CC[C@H](N)C(=O)O)C[C@H]1O[C@@H](n2cnc3c(N)ncnc32)[C@H](O)[C@@H]1O` (some centres unmarked) [SAM], for which the dissociation constant Kd was 9.5 µM on hMETTL6 [2]; 87.5 µM at hMETTL6 [3]; 2.25 µM on hMETTL6 [4]; 3.11 µM on hMETTL6 [5]; 8.05 µM at hMETTL6 [6]; roughly 2.7 µM at hMETTL6 [7]. Also, the KD result on hMETTL6 [8] is reported as “the D110A mutation almost eliminated the association capacity of the enzyme”.
